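96-well plates; 48 h exposure; 5 concentrations. Endpoints by linear interpolation between flanking doses. Not reached: highest tested concentration assigned. At the GI50, growth is halved.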 The source made the active and inactive calls. Cut-off read from the data, not from the text of the source: active = GI50 up to about 1.1 µM and inactive = higher.
What was measured:
Assay in all cases: NCI-60 cell line screen, 48 h
786-0 = tested on: 786-0
HL-60 = tested on: HL-60
SN12C = tested on: SN12C
NCI-H23 = tested on: NCI-H23
NCI-H522 = tested on: NCI-H522
DMS-114 = tested on: DMS-114
COLO 205 = tested on: COLO 205
OVCAR-3 = tested on: OVCAR-3
SK-MEL-28 = tested on: SK-MEL-28
MOLT-4 = tested on: MOLT-4
K562 = tested on: K562
DMS-273 = tested on: DMS-273
RXF 393 = tested on: RXF 393
SF-539 = tested on: SF-539
XF498 = tested on: XF498
U-251 = tested on: U-251
LOX IMVI = tested on: LOX IMVI
A549 = tested on: A549
NCI-H460 = tested on: NCI-H460
HOP-62 = tested on: HOP-62
SW-620 = tested on: SW-620
OVCAR-4 = tested on: OVCAR-4
HOP-92 = tested on: HOP-92
IGROV-1 = tested on: IGROV-1
SNB-78 = tested on: SNB-78
SK-MEL-2 = tested on: SK-MEL-2
OVCAR-8 = tested on: OVCAR-8
RPMI-8226 = tested on: RPMI-8226
KM12 = tested on: KM12
SNB-19 = tested on: SNB-19
SK-MEL-5 = tested on: SK-MEL-5
HCT-116 = tested on: HCT-116
CAKI-1 = tested on: CAKI-1
M14 = tested on: M14
SF-295 = tested on: SF-295
SNB-75 = tested on: SNB-75
UACC-257 = tested on: UACC-257
UACC-62 = tested on: UACC-62
CCRF-CEM = tested on: CCRF-CEM
TK-10 = tested on: TK-10
UO-31 = tested on: UO-31
DLD-1 = tested on: DLD-1
SK-OV-3 = tested on: SK-OV-3
HCC 2998 = tested on: HCC 2998
A498 = tested on: A498
Malme-3M = tested on: Malme-3M
LXFL 529 = tested on: LXFL 529
EKVX = tested on: EKVX
HCT-15 = tested on: HCT-15
SF-268 = tested on: SF-268
M19-MEL = tested on: M19-MEL
HT-29 = tested on: HT-29

## O=C1OC(O)c2cc3c(cc21)OCO3 (configuration not stated)
786-0
  GI50: > 100 µM (inactive)
HL-60
  GI50: > 100 µM (inactive)
SN12C
  GI50: > 100 µM (inactive)
NCI-H23
  GI50: > 100 µM (inactive)
NCI-H522
  GI50: > 100 µM (inactive)
DMS-114
  GI50: > 100 µM (inactive)
COLO 205
  GI50: > 100 µM (inactive)
OVCAR-3
  GI50: > 100 µM (inactive)
SK-MEL-28
  GI50: > 100 µM (inactive)
MOLT-4
  GI50: > 100 µM (inactive)
K562
  GI50: > 100 µM (inactive)
DMS-273
  GI50: > 100 µM (inactive)
RXF 393
  GI50: > 100 µM (inactive)
SF-539
  GI50: > 100 µM (inactive)
XF498
  GI50: > 100 µM (inactive)
U-251
  GI50: > 100 µM (inactive)
LOX IMVI
  GI50: > 100 µM (inactive)
A549
  GI50: > 100 µM (inactive)
NCI-H460
  GI50: > 100 µM (inactive)
HOP-62
  GI50: > 100 µM (inactive)
SW-620
  GI50: > 100 µM (inactive)
OVCAR-4
  GI50: > 100 µM (inactive)
HOP-92
  GI50: > 100 µM (inactive)
IGROV-1
  GI50: > 100 µM (inactive)
SNB-78
  GI50: > 100 µM (inactive)
SK-MEL-2
  GI50: > 100 µM (inactive)
OVCAR-8
  GI50: > 100 µM (inactive)
RPMI-8226
  GI50: > 100 µM (inactive)
KM12
  GI50: > 100 µM (inactive)
SNB-19
  GI50: > 100 µM (inactive)
SK-MEL-5
  GI50: > 100 µM (inactive)
HCT-116
  GI50: > 100 µM (inactive)
CAKI-1
  GI50: > 100 µM (inactive)
M14
  GI50: > 100 µM (inactive)
SF-295
  GI50: > 100 µM (inactive)
SNB-75
  GI50: > 100 µM (inactive)
UACC-257
  GI50: > 100 µM (inactive)
UACC-62
  GI50: > 100 µM (inactive)
CCRF-CEM
  GI50: > 100 µM (inactive)
TK-10
  GI50: > 100 µM (inactive)
UO-31
  GI50: > 100 µM (inactive)
DLD-1
  GI50: > 100 µM (inactive)
SK-OV-3
  GI50: > 100 µM (inactive)
HCC 2998
  GI50: > 100 µM (inactive)
A498
  GI50: > 100 µM (inactive)
Malme-3M
  GI50: > 100 µM (inactive)
LXFL 529
  GI50: > 100 µM (inactive)
EKVX
  GI50: > 100 µM (inactive)
HCT-15
  GI50: > 100 µM
SF-268
  GI50: > 100 µM (inactive)
M19-MEL
  GI50: > 100 µM (inactive)
HT-29
  GI50: > 100 µM (inactive)

Source: ChEMBL document CHEMBL1201862, “PubChem BioAssay data set” (2004)
